Data reported in ChEMBL document CHEMBL5360539, “RSK inhibitors as potential anticancer agents: Discovery, optimization, and challenges” (Eur J Med Chem, 2023).
Counter-ions that a name gives are not always drawn.

Key:
[1] = target: Ribosomal protein S6 kinase alpha-1 (Homo sapiens, UniProt Q15418); assay: Inhibition of RSK1 (unknown origin)
[2] = target: T1, Ribosomal protein S6 kinase alpha-3 (Homo sapiens, UniProt P51812); assay: Inhibition of RSK2 (unknown origin)
[3] = target: Ribosomal protein S6 kinase alpha-2 (Homo sapiens, UniProt Q15349); assay: Inhibition of RSK3 (unknown origin)
[4] = target: T1, Ribosomal protein S6 kinase alpha-3; assay: Inhibition of wild type RSK2 (unknown origin)
[5] = target: T1, Ribosomal protein S6 kinase alpha-3; assay: Inhibition of recombinant His-tagged RSK2 (unknown origin) expressed in Sf9 cells
[6] = target: Ribosomal protein S6 kinase alpha-6 (Homo sapiens, UniProt Q9UK32); assay: Inhibition of RSK4 (unknown origin)
[7] = Inhibition of recombinant N-terminal RSK (unknown origin) expressed in Sf21 cells; parameters: species or system Homo sapiens
[8] = target: T1, Ribosomal protein S6 kinase alpha-3; assay: Inhibition of human recombinant RSK2
[9] = target: T1, Ribosomal protein S6 kinase alpha-3; assay: Inhibition of RSK2 expressed in human MCF7 cells incubated for 1 hrs by; type: cell-based

T1 sequence (P51812 whole entry): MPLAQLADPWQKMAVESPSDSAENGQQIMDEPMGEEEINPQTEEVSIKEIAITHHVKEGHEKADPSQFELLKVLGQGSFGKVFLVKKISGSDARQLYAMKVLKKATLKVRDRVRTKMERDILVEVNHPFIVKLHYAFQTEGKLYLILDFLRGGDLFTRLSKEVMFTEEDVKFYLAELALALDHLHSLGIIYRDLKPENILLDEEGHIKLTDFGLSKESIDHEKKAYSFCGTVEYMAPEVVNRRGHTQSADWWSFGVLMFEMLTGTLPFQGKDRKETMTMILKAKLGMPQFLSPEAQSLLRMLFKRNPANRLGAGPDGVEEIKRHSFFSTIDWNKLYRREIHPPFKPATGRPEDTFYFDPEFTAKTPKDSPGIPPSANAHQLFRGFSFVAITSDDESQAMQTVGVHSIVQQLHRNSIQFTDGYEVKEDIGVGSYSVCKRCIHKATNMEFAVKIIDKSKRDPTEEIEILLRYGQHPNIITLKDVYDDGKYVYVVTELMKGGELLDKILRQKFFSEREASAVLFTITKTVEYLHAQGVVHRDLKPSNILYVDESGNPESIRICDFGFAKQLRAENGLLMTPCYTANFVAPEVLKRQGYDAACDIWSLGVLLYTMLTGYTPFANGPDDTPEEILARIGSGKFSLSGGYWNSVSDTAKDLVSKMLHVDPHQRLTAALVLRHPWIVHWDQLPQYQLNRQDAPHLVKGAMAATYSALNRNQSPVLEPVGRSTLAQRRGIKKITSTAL
Sequence of Ribosomal protein S6 kinase alpha-1 (Q15418 whole entry): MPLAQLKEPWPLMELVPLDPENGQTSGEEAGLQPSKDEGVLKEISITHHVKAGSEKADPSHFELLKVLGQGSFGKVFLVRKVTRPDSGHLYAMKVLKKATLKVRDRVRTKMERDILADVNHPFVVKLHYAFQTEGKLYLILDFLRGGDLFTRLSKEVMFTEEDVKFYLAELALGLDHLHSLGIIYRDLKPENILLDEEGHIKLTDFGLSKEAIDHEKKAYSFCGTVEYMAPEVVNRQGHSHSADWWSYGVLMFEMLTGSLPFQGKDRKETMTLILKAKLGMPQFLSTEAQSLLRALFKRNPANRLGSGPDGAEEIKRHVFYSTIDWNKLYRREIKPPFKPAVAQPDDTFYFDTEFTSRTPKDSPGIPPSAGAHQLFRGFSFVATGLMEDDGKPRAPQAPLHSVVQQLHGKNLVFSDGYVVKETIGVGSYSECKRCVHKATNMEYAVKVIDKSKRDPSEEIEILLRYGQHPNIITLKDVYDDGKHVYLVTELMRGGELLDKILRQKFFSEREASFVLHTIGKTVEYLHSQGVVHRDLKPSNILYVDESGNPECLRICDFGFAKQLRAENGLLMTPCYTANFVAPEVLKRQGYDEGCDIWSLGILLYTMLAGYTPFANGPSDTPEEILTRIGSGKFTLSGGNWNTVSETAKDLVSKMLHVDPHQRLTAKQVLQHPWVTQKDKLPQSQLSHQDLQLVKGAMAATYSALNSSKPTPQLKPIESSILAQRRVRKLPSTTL
Sequence of Ribosomal protein S6 kinase alpha-2 (Q15349 whole entry): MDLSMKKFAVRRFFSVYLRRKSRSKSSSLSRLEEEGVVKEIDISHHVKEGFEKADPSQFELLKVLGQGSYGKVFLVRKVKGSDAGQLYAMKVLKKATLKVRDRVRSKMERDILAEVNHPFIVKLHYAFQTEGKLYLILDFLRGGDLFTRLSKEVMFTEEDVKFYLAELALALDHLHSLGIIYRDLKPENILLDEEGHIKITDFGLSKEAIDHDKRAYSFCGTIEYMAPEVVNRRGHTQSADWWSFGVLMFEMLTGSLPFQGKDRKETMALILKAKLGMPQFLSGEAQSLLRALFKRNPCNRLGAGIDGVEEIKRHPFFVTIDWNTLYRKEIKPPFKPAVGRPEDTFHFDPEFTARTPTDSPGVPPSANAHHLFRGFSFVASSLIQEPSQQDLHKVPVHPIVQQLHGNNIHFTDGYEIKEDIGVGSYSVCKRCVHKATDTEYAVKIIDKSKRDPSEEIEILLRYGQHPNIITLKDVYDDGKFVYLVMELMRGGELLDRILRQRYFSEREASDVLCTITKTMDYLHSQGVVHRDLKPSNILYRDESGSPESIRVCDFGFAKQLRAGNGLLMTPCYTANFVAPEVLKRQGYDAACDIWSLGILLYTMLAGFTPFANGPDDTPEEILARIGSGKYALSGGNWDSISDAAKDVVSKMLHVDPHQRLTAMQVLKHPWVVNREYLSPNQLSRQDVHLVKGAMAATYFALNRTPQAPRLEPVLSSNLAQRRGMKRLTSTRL
Sequence of Ribosomal protein S6 kinase alpha-6 (Q9UK32 whole entry): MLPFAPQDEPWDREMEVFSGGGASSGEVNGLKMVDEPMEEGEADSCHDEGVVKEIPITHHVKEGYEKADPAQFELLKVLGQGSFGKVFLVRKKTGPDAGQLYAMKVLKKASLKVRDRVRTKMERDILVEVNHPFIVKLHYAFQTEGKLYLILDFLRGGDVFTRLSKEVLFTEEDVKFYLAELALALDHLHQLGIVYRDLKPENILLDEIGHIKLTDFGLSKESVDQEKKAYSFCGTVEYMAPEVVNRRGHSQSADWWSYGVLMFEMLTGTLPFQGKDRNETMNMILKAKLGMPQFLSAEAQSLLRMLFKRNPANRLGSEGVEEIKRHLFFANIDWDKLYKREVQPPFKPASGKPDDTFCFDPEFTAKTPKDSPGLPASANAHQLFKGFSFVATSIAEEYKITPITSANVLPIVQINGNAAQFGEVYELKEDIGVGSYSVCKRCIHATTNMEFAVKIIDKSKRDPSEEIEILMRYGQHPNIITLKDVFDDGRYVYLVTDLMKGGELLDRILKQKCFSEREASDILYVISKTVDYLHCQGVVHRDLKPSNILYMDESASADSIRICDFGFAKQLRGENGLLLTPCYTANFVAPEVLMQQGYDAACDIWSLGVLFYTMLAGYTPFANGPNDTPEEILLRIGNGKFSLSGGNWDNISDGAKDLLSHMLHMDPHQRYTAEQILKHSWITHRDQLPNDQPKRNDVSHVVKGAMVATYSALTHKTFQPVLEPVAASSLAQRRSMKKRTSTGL

Question: Which IC50 [1] does the source give for O=C1Nc2ccccc2/C1=C1/Nc2ccccc2/C1=N\O here?
Answer: 100 nM

Question: For CC(=O)O[C@@H]1[C@@H](OC(C)=O)[C@@H](O)[C@H](Oc2c(-c3ccc(O)cc3)oc3cc(O)cc(O)c3c2=O)O[C@H]1C, which IC50 [1] is on record?
Answer: 89 nM

Question: For O=C1c2ccccc2-c2c(NCCc3ccccc3)c(=O)[nH]c3cccc1c23, which IC50 [1] is on record?
Answer: 1500 nM

Question: What about the IC50 [2] of the same compound?
Answer: 2400 nM

Question: What about the IC50 [3] of the same compound?
Answer: 1200 nM

Question: For Cc1ccc(-c2c(C(=O)CCl)n(CCCO)c3ncnc(N)c23)cc1, which IC50 [4] is on record?
Answer: 15 nM

Question: For CCCNC(=O)O[C@H]1[C@H](CCC)C[C@@H](Oc2c(-c3ccc(O)cc3)oc3cc(O)cc(O)c3c2=O)[C@H](O)[C@@H]1OC(=O)NCCC, which IC50 [5] is on record?
Answer: 870 nM

Question: For CCCNC(=O)O[C@@H]1[C@@H](OC(C)=O)[C@@H](O)[C@H](Oc2c(-c3ccc(O)cc3)oc3cc(O)cc(O)c3c2=O)O[C@H]1CCC, which IC50 [6] is on record?
Answer: 6.2 µM

Question: For CCC[C@@H]1C[C@@H](Oc2c(-c3ccc(O)cc3)oc3cc(O)cc(O)c3c2=O)[C@H](O)[C@H](OC(C)=O)[C@H]1OC(C)=O, which IC50 [5] is on record?
Answer: 870 nM

Question: For CC(C)CCN1c2nc(Nc3cc(F)c(O)c(F)c3)ncc2N(C)C(=O)C1C (stereo unspecified), which IC50 [7] is on record?
Answer: 10 nM

Question: For Cn1cc(C2=C(c3cn(CCCSC(=N)N)c4ccccc34)C(=O)NC2=O)c2ccccc21 [BISINDOLYLMALEIMIDE IX], which IC50 [1] is on record?
Answer: 200 nM

Question: Which IC50 [8] does the source give for COC(=O)/C=C/C(=O)OC [DIMETHYL FUMARATE] here?
Answer: 225 µM

Question: With O=C1C[C@@H](c2ccc(O)c(O)c2)Oc2cc(O)cc(O)c21 [ERIODICTYOL] as the compound, how does the IC50 [9] read?
Answer: 4.77 µM

Question: For CN(C)CCCn1cc(C2=C(c3c[nH]c4ccccc34)C(=O)NC2=O)c2ccccc21 [GF-109203], which IC50 [1] is on record?
Answer: 610 nM

Question: Which IC50 [2] does the source give for CC(C)=CCC1=C(O)C(=O)c2ccccc2C1=O [LAPACHOL] here?
Answer: 2000 nM

Question: Which IC50 [1] does the source give for Cn1cc(C2=C(c3ccc(Cl)cc3Cl)C(=O)NC2=O)c2ccccc21 [SB-216763] here?
Answer: 100 nM
